Results: ChEMBL document CHEMBL4308841, “Synthesis, in vitro antiproliferative activity, and kinase inhibitory effects of pyrazole-containing diarylureas and diarylamides” (Eur J Med Chem, 2018)

Test system: MOLT-4
Assay: Growth inhibition of human MOLT4 cells assessed as cell growth at 10 uM incubated for 48 hrs by sulforhodamine B assay relative to control
Type: functional
Conditions: MOLT-4, 48 h, read-out: Activity

`COc1cc(Cl)cc(-c2nn(-c3cccc(NC(=O)c4ccc(N5CCOCC5)c(C(F)(F)F)c4)c3)cc2-c2ccncc2)c1` was tested. Which growth at 10 µM did it give?
The growth at 10 µM was 38.3%.

Test system: HOP-62
Assay: Growth inhibition of human HOP62 cells assessed as cell growth at 10 uM incubated for 48 hrs by sulforhodamine B assay relative to control
Type: functional
Conditions: HOP-62, 48 h, read-out: Activity

For `COc1cc(Cl)cc(-c2nn(-c3cccc(NC(=O)c4ccc(N5CCOCC5)c(C(F)(F)F)c4)c3)cc2-c2ccncc2)c1`, which growth at 10 µM is on record?
Its growth at 10 µM is 52.1%.

Test system: NCI-H226
Assay: Growth inhibition of human NCI-H226 cells assessed as cell growth at 10 uM incubated for 48 hrs by sulforhodamine B assay relative to control
Type: functional
Conditions: NCI-H226, 48 h, read-out: Activity

How did the growth at 10 µM turn out when `COc1cc(Cl)cc(-c2nn(-c3cccc(NC(=O)c4ccc(N5CCOCC5)c(C(F)(F)F)c4)c3)cc2-c2ccncc2)c1` was run?
The growth at 10 µM was 64.2%.

Test system: NCI-H460
Assay: Growth inhibition of human NCI-H460 cells assessed as cell growth at 10 uM incubated for 48 hrs by sulforhodamine B assay relative to control
Type: functional
Conditions: NCI-H460, 48 h, read-out: Activity

`COc1cc(Cl)cc(-c2nn(-c3cccc(NC(=O)c4ccc(N5CCOCC5)c(C(F)(F)F)c4)c3)cc2-c2ccncc2)c1` was tested. Which growth at 10 µM did it give?
Its growth at 10 µM is 29.3%.

Test system: HCT-116
Assay: Growth inhibition of human HCT116 cells assessed as cell growth at 10 uM incubated for 48 hrs by sulforhodamine B assay relative to control
Type: functional
Conditions: HCT-116, 48 h, read-out: Activity

For `COc1cc(Cl)cc(-c2nn(-c3cccc(NC(=O)c4ccc(N5CCOCC5)c(C(F)(F)F)c4)c3)cc2-c2ccncc2)c1`, which growth at 10 µM is on record?
Its growth at 10 µM is 47.8%.

Test system: LOX IMVI
Assay: Growth inhibition of human LOXIMVI cells assessed as cell growth at 10 uM incubated for 48 hrs by sulforhodamine B assay relative to control
Type: functional
Conditions: read-out: Activity

How did the growth at 10 µM turn out when `COc1cc(Cl)cc(-c2nn(-c3cccc(NC(=O)c4ccc(N5CCOCC5)c(C(F)(F)F)c4)c3)cc2-c2ccncc2)c1` was run?
Its growth at 10 µM is 47.3%.

Test system: MDA-MB-435
Assay: Growth inhibition of human MDA-MB-435 cells assessed as cell growth at 10 uM incubated for 48 hrs by sulforhodamine B assay relative to control
Type: functional
Conditions: MDA-MB-435, 48 h, read-out: Activity

Which growth at 10 µM does the source give for `COc1cc(Cl)cc(-c2nn(-c3cccc(NC(=O)c4ccc(N5CCOCC5)c(C(F)(F)F)c4)c3)cc2-c2ccncc2)c1` here?
Its growth at 10 µM is 63.4%.

Test system: UACC-257
Assay: Growth inhibition of human UACC257 cells assessed as cell growth at 10 uM incubated for 48 hrs by sulforhodamine B assay relative to control
Type: functional
Conditions: UACC-257, 48 h, read-out: Activity

`COc1cc(Cl)cc(-c2nn(-c3cccc(NC(=O)c4ccc(N5CCOCC5)c(C(F)(F)F)c4)c3)cc2-c2ccncc2)c1` was tested. Which growth at 10 µM did it give?
The growth at 10 µM was 63.5%.

Test system: UACC-62
Assay: Growth inhibition of human UACC62 cells assessed as cell growth at 10 uM incubated for 48 hrs by sulforhodamine B assay relative to control
Type: functional
Conditions: UACC-62, 48 h, read-out: Activity

How did the growth at 10 µM turn out when `COc1cc(Cl)cc(-c2nn(-c3cccc(NC(=O)c4ccc(N5CCOCC5)c(C(F)(F)F)c4)c3)cc2-c2ccncc2)c1` was run?
Its growth at 10 µM is 67.8%.

Test system: IGROV-1
Assay: Growth inhibition of human IGROV1 cells assessed as cell growth at 10 uM incubated for 48 hrs by sulforhodamine B assay relative to control
Type: functional
Conditions: IGROV-1, 48 h, read-out: Activity

Which growth at 10 µM does the source give for `COc1cc(Cl)cc(-c2nn(-c3cccc(NC(=O)c4ccc(N5CCOCC5)c(C(F)(F)F)c4)c3)cc2-c2ccncc2)c1` here?
Its growth at 10 µM is 96.5%.

Test system: OVCAR-3
Assay: Growth inhibition of human OVCAR3 cells assessed as cell growth at 10 uM incubated for 48 hrs by sulforhodamine B assay relative to control
Type: functional
Conditions: OVCAR-3, 48 h, read-out: Activity

`COc1cc(Cl)cc(-c2nn(-c3cccc(NC(=O)c4ccc(N5CCOCC5)c(C(F)(F)F)c4)c3)cc2-c2ccncc2)c1` was tested. Which growth at 10 µM did it give?
The growth at 10 µM was 69.4%.

Test system: NCI/ADR-RES
Assay: Growth inhibition of human NCI/ADR-RES cells assessed as cell growth at 10 uM incubated for 48 hrs by sulforhodamine B assay relative to control
Type: functional
Conditions: read-out: Activity

Which growth at 10 µM does the source give for `COc1cc(Cl)cc(-c2nn(-c3cccc(NC(=O)c4ccc(N5CCOCC5)c(C(F)(F)F)c4)c3)cc2-c2ccncc2)c1` here?
The growth at 10 µM was 46.1%.

Test system: SK-OV-3
Assay: Growth inhibition of human SKOV3 cells assessed as cell growth at 10 uM incubated for 48 hrs by sulforhodamine B assay relative to control
Type: functional
Conditions: SK-OV-3, 48 h, read-out: Activity

`COc1cc(Cl)cc(-c2nn(-c3cccc(NC(=O)c4ccc(N5CCOCC5)c(C(F)(F)F)c4)c3)cc2-c2ccncc2)c1` was tested. Which growth at 10 µM did it give?
Its growth at 10 µM is 75.7%.

Test system: 786-0
Assay: Growth inhibition of human 786-0 cells assessed as cell growth at 10 uM incubated for 48 hrs by sulforhodamine B assay relative to control
Type: functional
Conditions: 786-0, 48 h, read-out: Activity

How did the growth at 10 µM turn out when `COc1cc(Cl)cc(-c2nn(-c3cccc(NC(=O)c4ccc(N5CCOCC5)c(C(F)(F)F)c4)c3)cc2-c2ccncc2)c1` was run?
Its growth at 10 µM is 43.1%.

Test system: ACHN
Assay: Growth inhibition of human ACHN cells assessed as cell growth at 10 uM incubated for 48 hrs by sulforhodamine B assay relative to control
Type: functional
Conditions: read-out: Activity

How did the growth at 10 µM turn out when `COc1cc(Cl)cc(-c2nn(-c3cccc(NC(=O)c4ccc(N5CCOCC5)c(C(F)(F)F)c4)c3)cc2-c2ccncc2)c1` was run?
The growth at 10 µM was 50.1%.

Test system: CAKI-1
Assay: Growth inhibition of human Caki1 cells assessed as cell growth at 10 uM incubated for 48 hrs by sulforhodamine B assay relative to control
Type: functional
Conditions: CAKI-1, 48 h, read-out: Activity

For `COc1cc(Cl)cc(-c2nn(-c3cccc(NC(=O)c4ccc(N5CCOCC5)c(C(F)(F)F)c4)c3)cc2-c2ccncc2)c1`, which growth at 10 µM is on record?
The growth at 10 µM was 46.7%.

Test system: RXF 393
Assay: Growth inhibition of human RXF393 cells assessed as cell growth at 10 uM incubated for 48 hrs by sulforhodamine B assay relative to control
Type: functional
Conditions: RXF 393, 48 h, read-out: Activity

For `COc1cc(Cl)cc(-c2nn(-c3cccc(NC(=O)c4ccc(N5CCOCC5)c(C(F)(F)F)c4)c3)cc2-c2ccncc2)c1`, which growth at 10 µM is on record?
Its growth at 10 µM is 12.4%.

Test system: SN12C
Assay: Growth inhibition of human SN12C cells assessed as cell growth at 10 uM incubated for 48 hrs by sulforhodamine B assay relative to control
Type: functional
Conditions: read-out: Activity

Which growth at 10 µM does the source give for `COc1cc(Cl)cc(-c2nn(-c3cccc(NC(=O)c4ccc(N5CCOCC5)c(C(F)(F)F)c4)c3)cc2-c2ccncc2)c1` here?
Its growth at 10 µM is 79.8%.

Test system: UO-31
Assay: Growth inhibition of human UO31 cells assessed as cell growth at 10 uM incubated for 48 hrs by sulforhodamine B assay relative to control
Type: functional
Conditions: UO-31, 48 h, read-out: Activity

`COc1cc(Cl)cc(-c2nn(-c3cccc(NC(=O)c4ccc(N5CCOCC5)c(C(F)(F)F)c4)c3)cc2-c2ccncc2)c1` was tested. Which growth at 10 µM did it give?
The growth at 10 µM was 40.7%.
